Measured values taken from US6635650B2, “Substituted dimeric compounds” (Les Laboratoires Servier, priority 1999, dated 2003).

- melting point: 142 to 144 °C
SMILES: CC(=O)NCCc1cccc2ccc(OCCCCCCOc3ccc4cccc(CCNC(C)=O)c4c3)cc12 [Example 17, N-[2-(7-{[6-({8-[2-(Acetylamino)ethyl]-2-naphthyl}oxy)hexyl]oxy}-1-naphthyl)ethyl]acetamide]
